Measurements from patent US20250228824A1, “COMPOSITIONS AND METHODS FOR INHIBITION OF ITO AS TREATMENT FOR THE J WAVE SYNDROMES AND HYPOTHERMIA” (Lankenau Institute for Medical Research, priority 2021, published 2025).

Experiments:
[1] = high doses / high plasma levels; cited from earlier work
[2] = system: coronary-perfused canine right (RV) and left (LV) ventricular wedge models of JWS; assay: Coronary-perfused ventricular wedge models of the J wave syndromes (NS5806 alone or with verapamil); design: QT interval / T wave amplitude / Epi (APD50) / Epi (APD90): unit not given here
Description: Ten hearts from purpose-bred adult male mongrel dogs (20-22 kg) were acquired from Covance (Denver, PA) and another 10 hearts from purpose-bred adult male Beagle dogs (10-16 kg) were obtained from Envigo (Denver, PA). Dogs were sedated with ketamine (10 mg/kg, IM) and xylazine 2 (mg/kg, IM). Prior to euthanasia (Euthasol solution: pentobarbital sodium and phenytoin sodium; 0.22 ml/kg, IV), and heparin (human pharmaceutical grade, 1,000 U/kg, IV) were administered 3-4 min before isolation of the hearts via a left thoracotomy. Retrograde aortic perfusion of the hearts with ice-cold cardioplegic solution (modified K-H solution; 16 mM KCl) was immediately performed to rinse the coronary vasculature of blood. The hearts were then placed in a sealed container containing ice-cold cardioplegic solution and transported to our institution via private courier in an insulated package filled with icepacks.
Transmural wedges were dissected from the base of the RV and LV. During the cannulation procedure, preparations were initially arterially perfused with cardioplegic solution. Next, the wedge preparations were placed in a tissue bath and perfused with a modified Krebs-Henseleit solution (K—H) bubbled with 95% O2/5% CO2 warmed to 37° C. The composition of K—H was (in mM): 118 NaCl, 4 KCl, 2 CaCl2, 1.2 MgSO4, 24 NaHCO3, 1.2 NaH2PO4, 2 Na Pyruvate and 10 D-Glucose. The perfusate was delivered at a constant pressure (45-50 mmHg). A transmural pseudo-ECG (ECG) was recorded using two Ag/AgCl half cells placed at ˜1 cm from the Epi (+) and Endo (−) surfaces along the same axis as the transmembrane action potential (AP) recordings. APs were simultaneously recorded from the immediate sub-Epi and M cell region (˜2-3 mm from the Endo surface) using floating glass microelectrodes. Pacing was applied to the Endo surface using bipolar silver electrodes insulated except at the tips (Basic Cycle Lengths [BCLs]: 500-2,000 ms). A detailed description of the arterially-perfused ventricular wedge preparation has been previously published.^5 ECG and AP signals were digitized and analyzed using Spike 2 for Windows (Cambridge Electronic Design, Cambridge, UK).
We used the Ito-agonist NS5806 (5-10 μM) alone or with the calcium-channel blocker verapamil (2.5 μM) to pharmacologically mimic the effects of the ion channel genetic defects underlying ERS and BrS. These provocative agents were added to the coronary perfusate in increasing concentrations until the characteristic ECG phenotypes were unmasked, including phase 2 reentry (P2R), closely coupled premature beats (CCPBs) and/or pVT/VF. AR-787 was added to the perfusate to test its ability to suppress or prevent arrhythmogenesis.

[3] = NS5806 5-10 μM, 3 LV wedges, BCL 800 msec

## C=C[C@H]1C[N@@]2CC[C@H]1C[C@@H]2[C@@H](O)c1ccnc2ccc(OC)cc12 [quinidine]
[1]
  patients developing serious GI side effects: approximately 50%

## O=C(Nc1cc(C(F)(F)F)cc(C(F)(F)F)c1)Nc1c(Br)cc(Br)cc1-c1nn[nH]n1 [NS5806, reference compound]
[2]; AR-787 1, 10 or 50 μM, NS5806 5-10 μM, five wedges
  QT interval: unaffected
[2]; NS5806 5-10 μM in coronary perfusate
  effect on phase 1 magnitude, AP notch and J wave: increased the magnitude of phase 1
[2]; [3]
  Epi (APD50): 181.8 ± 10.4
  Epi (APD90): 215.6 ± 5.3
  J wave amplitude: 31.3 ± 4.6
  M (APD50): 179.5 ± 5.9
  M (APD90): 228.4 ± 7.7
  Ph1 mag (% Ph0): 40.2 ± 6.5 % Ph0
  QT interval: 261.2 ± 4.5
  T wave amplitude: 17.8 ± 9.6
